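Briefly, cells in 96-well plates were exposed to five compound concentrations for 48 h, and endpoints were estimated by linear interpolation. At the GI50, growth is halved.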 Activity calls are given as the source filed them. Rule as the data show it: active = GI50 up to about 1.1 µM and inactive = higher.
Tests used:
Assay in all cases: inhibition of tumour cell growth, NCI panel, 48 h
UACC-62 = tested on: UACC-62
NCI-H460 = tested on: NCI-H460
SNB-75 = tested on: SNB-75
SNB-19 = tested on: SNB-19
Malme-3M = tested on: Malme-3M
HT-29 = tested on: HT-29
LOX IMVI = tested on: LOX IMVI
HCT-15 = tested on: HCT-15
OVCAR-3 = tested on: OVCAR-3
SK-MEL-5 = tested on: SK-MEL-5
MDA-MB-231 = tested on: MDA-MB-231
HCC 2998 = tested on: HCC 2998
EKVX = tested on: EKVX
NCI/ADR-RES = tested on: NCI/ADR-RES
HCT-116 = tested on: HCT-116
UACC-257 = tested on: UACC-257
786-0 = tested on: 786-0
MCF7 = tested on: MCF7
SF-539 = tested on: SF-539
HOP-92 = tested on: HOP-92

Row | Compound | GI50 (UACC-62) | GI50 (NCI-H460) | GI50 (SNB-75) | GI50 (SNB-19) | GI50 (Malme-3M) | GI50 (HT-29) | GI50 (LOX IMVI) | GI50 (HCT-15) | GI50 (OVCAR-3) | GI50 (SK-MEL-5) | GI50 (MDA-MB-231) | GI50 (HCC 2998) | GI50 (EKVX) | GI50 (NCI/ADR-RES) | GI50 (HCT-116) | GI50 (UACC-257) | GI50 (786-0) | GI50 (MCF7) | GI50 (SF-539) | GI50 (HOP-92)
1 | CN1CCC/C1=C1\C(=O)c2cccn2C1=O | > 100 µM (inactive) | > 100 µM (inactive) | > 100 µM (inactive) | > 100 µM (inactive) | > 100 µM (inactive) | > 100 µM (inactive) | > 100 µM (inactive) | > 100 µM | > 100 µM (inactive) | > 100 µM (inactive) | > 100 µM (inactive) | > 100 µM (inactive) | > 100 µM (inactive) | > 100 µM (inactive) | > 100 µM (inactive) | > 100 µM (inactive) | > 100 µM (inactive) | > 100 µM (inactive) | – | –
2 | CC12CCC(CC(=O)/C1=C(/Br)I)C2(C)C (configuration not stated) | 14.5 µM (inactive) | > 100 µM (inactive) | 16.3 µM (inactive) | 15.3 µM (inactive) | 12.7 µM (inactive) | 11.4 µM (inactive) | 0.0789 µM (active) | 10.9 µM | 13.6 µM (inactive) | 11.4 µM (inactive) | 5.57 µM (inactive) | – | 19.5 µM (inactive) | 15.3 µM (inactive) | 12.4 µM (inactive) | 16.2 µM (inactive) | 16.1 µM (inactive) | – | 15.7 µM (inactive) | 17.3 µM (inactive)
3 | COc1cccc(C2c3cc4c(cc3OC(NNc3ccccc3)C2C)OCO4)c1O (configuration not stated) | 2.43 µM (inactive) | 2.81 µM (inactive) | 6.61 µM (inactive) | 12.8 µM (inactive) | 4.66 µM (inactive) | 10.9 µM (inactive) | 12.7 µM (inactive) | 1.62 µM | 2.71 µM (inactive) | 6.21 µM (inactive) | 12.6 µM (inactive) | 2.08 µM (inactive) | 4.88 µM (inactive) | – | 4.4 µM (inactive) | 4.57 µM (inactive) | 2.88 µM (inactive) | 4.67 µM (inactive) | 3.18 µM (inactive) | 12.6 µM (inactive)
4 | [O-][S+](Nc1ccccc1)c1ccc(N2CCOCC2)cc1 (configuration not stated) | 9.12 µM (inactive) | 42.6 µM (inactive) | – | > 100 µM (inactive) | 36.4 µM (inactive) | 36.3 µM (inactive) | 71 µM (inactive) | 13 µM | > 100 µM (inactive) | 39.8 µM (inactive) | 86.7 µM (inactive) | 91.2 µM (inactive) | 94.6 µM (inactive) | 51.9 µM (inactive) | 21.2 µM (inactive) | 34.2 µM (inactive) | 88.9 µM (inactive) | 57.4 µM (inactive) | 35.8 µM (inactive) | –
5 | CCCC(=O)NC(NC1CCCCC1)(C(=O)OCC)C(F)(F)F (configuration not stated) | – | > 100 µM (inactive) | 29.7 µM (inactive) | > 100 µM (inactive) | > 100 µM (inactive) | > 100 µM (inactive) | > 100 µM (inactive) | > 100 µM | > 100 µM (inactive) | > 100 µM (inactive) | – | > 100 µM (inactive) | > 100 µM (inactive) | > 100 µM (inactive) | > 100 µM (inactive) | > 100 µM (inactive) | > 100 µM (inactive) | > 100 µM (inactive) | > 100 µM (inactive) | > 100 µM (inactive)
6 | CCCNC(=O)CCC(C)C1CCC2C3C(C[C@H](OC(C)=O)[C@]12C)[C@@]1(C)CCC2(C[C@H]1C[C@H]3OC(C)=O)OOC1(CC[C@]3(C)C4C[C@H](OC(C)=O)[C@]5(C)C(C(C)CCC(=O)NCCC)CCC5C4[C@H](OC(C)=O)C[C@@H]3C1)OO2 (some centres not stated) | – | > 100 µM (inactive) | 57.5 µM (inactive) | > 100 µM (inactive) | 34.6 µM (inactive) | > 100 µM (inactive) | > 100 µM (inactive) | > 100 µM | > 100 µM (inactive) | 36.8 µM (inactive) | 11.3 µM (inactive) | > 100 µM (inactive) | 57 µM (inactive) | > 100 µM (inactive) | > 100 µM (inactive) | 31 µM (inactive) | > 100 µM (inactive) | > 100 µM (inactive) | – | –
7 | CN1CCN(Cc2nc3c(s2)CCc2sccc2-3)CC1 | 24.8 µM (inactive) | > 100 µM (inactive) | 75.7 µM (inactive) | 74.8 µM (inactive) | 89.3 µM (inactive) | 32.7 µM (inactive) | – | > 100 µM | > 100 µM (inactive) | 36.4 µM (inactive) | 52.2 µM (inactive) | 51.4 µM (inactive) | > 100 µM (inactive) | > 100 µM (inactive) | 62.5 µM (inactive) | 79.3 µM (inactive) | 95.3 µM (inactive) | 79.8 µM (inactive) | – | –
8 | CC1CCCc2c(-c3ccc(Cl)cc3)nc(N)c(C#N)c21 (configuration not stated) | 18.9 µM (inactive) | 33.1 µM (inactive) | 11.7 µM (inactive) | 64.7 µM (inactive) | 24.4 µM (inactive) | 30.6 µM (inactive) | 24.2 µM (inactive) | 31 µM | 29.5 µM (inactive) | 18.3 µM (inactive) | > 100 µM (inactive) | – | 18.5 µM (inactive) | 23.2 µM (inactive) | 22.3 µM (inactive) | 27.7 µM (inactive) | 42.1 µM (inactive) | 29 µM (inactive) | 25.5 µM (inactive) | –
9 | O=C(NCCC1([N+](=O)[O-])CCN(C(=O)c2ccccc2)CC1)c1ccccc1 | 57.4 µM (inactive) | 35.3 µM (inactive) | – | > 100 µM (inactive) | 56.5 µM (inactive) | 45.6 µM (inactive) | – | > 100 µM | – | 37.2 µM (inactive) | > 100 µM (inactive) | – | > 100 µM (inactive) | > 100 µM (inactive) | > 100 µM (inactive) | 24.7 µM (inactive) | > 100 µM (inactive) | – | > 100 µM (inactive) | < 0.01 µM (active)
10 | COc1ccc(N[C@H](CSc2ccc(C)cc2)c2ccc(F)cc2)cc1 | 65.8 µM (inactive) | > 100 µM (inactive) | > 100 µM (inactive) | > 100 µM (inactive) | – | > 100 µM (inactive) | 29.4 µM (inactive) | 65.5 µM | > 100 µM (inactive) | 57.3 µM (inactive) | > 100 µM (inactive) | > 100 µM (inactive) | > 100 µM (inactive) | > 100 µM (inactive) | 45.8 µM (inactive) | 40 µM (inactive) | > 100 µM (inactive) | 61.8 µM (inactive) | > 100 µM (inactive) | –
11 | CCC(=O)Nc1ccc(N2C(=O)/C(=C/c3ccc(O)c(OC)c3)N=C2c2ccccc2)cc1 | 26.4 µM (inactive) | 23.9 µM (inactive) | > 100 µM (inactive) | 22.5 µM (inactive) | 29.8 µM (inactive) | 33.7 µM (inactive) | 36.7 µM (inactive) | 21.3 µM | 28.3 µM (inactive) | 14.3 µM (inactive) | – | 21 µM (inactive) | 17.8 µM (inactive) | 70.6 µM (inactive) | 34.4 µM (inactive) | 26.7 µM (inactive) | 24 µM (inactive) | 31.6 µM (inactive) | 84.1 µM (inactive) | 46.5 µM (inactive)
12 | NC(=S)N1N=C(c2ccc3c(c2)CCC3)CC1c1ccccc1 (configuration not stated) | 17.6 µM (inactive) | 22.2 µM (inactive) | 18.1 µM (inactive) | 34.6 µM (inactive) | 22.6 µM (inactive) | 16.4 µM (inactive) | 31.5 µM (inactive) | 13.8 µM | 17.4 µM (inactive) | 12.8 µM (inactive) | – | 16.1 µM (inactive) | 5.08 µM (inactive) | 15.6 µM (inactive) | 22 µM (inactive) | 21.4 µM (inactive) | 22.6 µM (inactive) | 8.45 µM (inactive) | 18.3 µM (inactive) | 23.4 µM (inactive)
13 | O=c1cnn2c(n1)sc1ccc3ccccc3c12 | > 100 µM (inactive) | 61.2 µM (inactive) | > 100 µM (inactive) | > 100 µM (inactive) | > 100 µM (inactive) | > 100 µM (inactive) | 76.6 µM (inactive) | > 100 µM | > 100 µM (inactive) | > 100 µM (inactive) | – | > 100 µM (inactive) | 25.1 µM (inactive) | – | 87.9 µM (inactive) | > 100 µM (inactive) | > 100 µM (inactive) | – | > 100 µM (inactive) | > 100 µM (inactive)
14 | CC(C)NC(C)Cc1ccccc1 (configuration not stated) | > 100 µM (inactive) | > 100 µM (inactive) | > 100 µM (inactive) | > 100 µM (inactive) | > 100 µM (inactive) | > 100 µM (inactive) | > 100 µM (inactive) | 3.97 µM | > 100 µM (inactive) | > 100 µM (inactive) | – | > 100 µM (inactive) | > 100 µM (inactive) | – | > 100 µM (inactive) | > 100 µM (inactive) | > 100 µM (inactive) | – | > 100 µM (inactive) | > 100 µM (inactive)
15 | COC(=O)/C(C)=C(/CCC1(C)OCCO1)O[Si](C)(C)C | > 100 µM (inactive) | 47.1 µM (inactive) | 20.5 µM (inactive) | > 100 µM (inactive) | > 100 µM (inactive) | > 100 µM (inactive) | > 100 µM (inactive) | > 100 µM | > 100 µM (inactive) | > 100 µM (inactive) | – | > 100 µM (inactive) | > 100 µM (inactive) | – | > 100 µM (inactive) | > 100 µM (inactive) | > 100 µM (inactive) | – | > 100 µM (inactive) | > 100 µM (inactive)
16 | CC1C2CC(CC2(C)O)C1(C)C (configuration not stated) | > 100 µM (inactive) | > 100 µM (inactive) | > 100 µM (inactive) | > 100 µM (inactive) | > 100 µM (inactive) | > 100 µM (inactive) | – | – | > 100 µM (inactive) | > 100 µM (inactive) | > 100 µM (inactive) | > 100 µM (inactive) | > 100 µM (inactive) | – | > 100 µM (inactive) | > 100 µM (inactive) | > 100 µM (inactive) | > 100 µM (inactive) | > 100 µM (inactive) | > 100 µM (inactive)

Source: ChEMBL document CHEMBL1201862, “PubChem BioAssay data set” (2004)
